Tested on: C2C12 mouse myoblast cells
Assay: MTT assay of film leachate toxicity
Format: cell-based
Settings: 24 h exposure
Protocol: Toxicity studies were also performed using the MTT assay to evaluate whether films of 3.0a-c on stainless steel would release toxic levels of paclitaxel or any other leachate during a defined incubation period in cell culture media.
Preparation of leachate: Test samples were melt-pressed to a thickness of 0.4 mm. The melt pressed film was then cut into squares of 1 cm×1 cm. Samples were sterilized by washing with 70% ethanol and subsequently dried for 2 h under UV light. […]
MTT assay: C2C12 mouse myoblast cells were seeded in a Nunclon™ 96-well U bottom transparent polystrol plate to obtain 10,000 cells/well in 100 μL of DMEM containing serum, glutamax and antibiotics as described above. […] After shaking (1 second, 2 mm amp, 654 rpm), the absorbance of the wells at 540 nm was read using an M1000-Pro plate reader (Tecan). The absorbance of wells not containing cells but treated by all of the above steps was subtracted as a background and the cell viability was calculated relative to wells containing cells that were exposed to just culture medium. No (0%) cell viability was detected for the cells exposed to the highest concentrations of the positive control sodium lauryl sulfate, confirming the sensitivity of the assay.

Question: With `CCCCCCCCCCCCOS(=O)(=O)[O-].[Na+]` [SDS, sodium dodecyl sulfate] as the molecule, how does the cell viability (at 0.2 μg/mL) read?
Answer: < 10%

Question: And the cell viability (highest concentrations of the positive control)?
Answer: 0%

From patent publication US20170258970A1, “POLYMER-DRUG CONJUGATE BASED ON A POLYISOOLEFIN-BASED COPOLYMER” (ARLANXEO Singapore Pte. Ltd., priority 2014, published 2017)
